One data set relates to AsPC-1 cells. Nature of the data set: 3D cell proliferation assay (CellTiter Glo-3D), AsPC-1. The data set is classed as cell-based, human. The conditions noted are these: AsPC-1 cells (KRAS G12D), 3D, 2% FBS, 5 days, read-out: AsPC-1 AP IC50. A digest of the protocol:
(§1)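 Cells seeded at 800 per well (AsPC-1, NCI-H441) in 2% FBS medium and incubated overnight at 37 °C, 5% CO2. Compounds added next day from 10× stock, then 5 days' further culture. Viability read by CellTiter-Glo luminescence; IC50 from four-parameter fit of inhibition versus log concentration.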
A general note: Cellular ATP, detected with luciferase, serves as a proxy for viable cell number.

The test system of another data set is AsPC-1 p-ERK. Nature of the data set: Cell p-ERK assay (HTRF), AsPC-1 cells. Format: cell-based, human. The conditions noted are these: AsPC-1 cells (KRAS G12D), 3 h incubation, read-out: AsPC-1 p-ERK IC50. A digest of the protocol:
(§2)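 AsPC-1 (10000/well) or NCI-H441 (20000/well) cells were seeded overnight and then exposed to compound for 3 h at 37 °C. Lysates were probed for ERK phospho-T202/Y204 by HTRF with a 4-hour antibody incubation. IC50 values came from four-parameter fits of inhibition against log concentration.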
Background: TR-FRET usually uses a lanthanide donor and a delayed reading to cut background.

The next data set addresses KRAS WT-cRAF (Homo sapiens, UniProt P01116+P62937). As to the kind of experiment: Assay for binding of KRAS to cRAF (HTRF, with Cyclophilin A), KRAS WT.
The next data set deals with KRAS G12V-cRAF (Homo sapiens, UniProt P01116+P62937, G12V). As to the kind of experiment: Assay for binding of KRAS to cRAF (HTRF, with Cyclophilin A), KRAS G12V.
Sequence of KRAS G12V-cRAF (P01116 1-188 isoform P01116-2 G12V): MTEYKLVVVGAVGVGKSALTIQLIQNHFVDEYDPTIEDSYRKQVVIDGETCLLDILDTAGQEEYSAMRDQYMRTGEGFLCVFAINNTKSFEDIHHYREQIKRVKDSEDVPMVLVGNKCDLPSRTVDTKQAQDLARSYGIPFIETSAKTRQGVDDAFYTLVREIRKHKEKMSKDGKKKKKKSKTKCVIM
Sequence of KRAS G12V-cRAF (P62937 whole entry): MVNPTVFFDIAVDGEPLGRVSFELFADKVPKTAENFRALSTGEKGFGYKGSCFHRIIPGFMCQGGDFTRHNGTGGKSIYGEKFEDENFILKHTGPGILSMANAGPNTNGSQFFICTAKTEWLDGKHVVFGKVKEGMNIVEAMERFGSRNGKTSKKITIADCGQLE
A further data set deals with H441 p-ERK. Nature of the data set: Cell p-ERK assay (HTRF), NCI-H441 cells. Format: cell-based, human. The following applies: NCI-H441 cells (KRAS G12V), 3 h incubation. A digest of the protocol:
as §2

For the next data set, the system named is NCI-H441 cells. Nature of the data set: 3D cell proliferation assay (CellTiter Glo-3D), NCI-H441. Format: cell-based, human. The conditions noted are these: NCI-H441 cells (KRAS G12V), 2% FBS, 5 days, read-out: H441 AP IC50. The procedure, abridged: as §1
Data set [1] is described as follows: Solubility experiment (HPLC, external standard). The data set is classed as physicochemical. The conditions noted are these: 37 °C, 24 h; for solubility at 24 h: pH 7.4, pH 7.4 medium. The method, then:
This experiment was intended to determine the solubility of the compounds in media at different pH values. The materials used in the experiment included: a pH 1.2 medium, a pH 4.5 medium, a pH 7.4 medium, and a diluent (acetonitrile/water = 50/50). 1. The preparation methods for media are as follows:
One centrifuge tube (containing about 2 mg of the test sample) was taken, 1 mL of DMSO was added to completely dissolve the test sample, and the mixture was marked as stock-1. 0.2 mL of stock-1 was transferred into a 10 mL volumetric flask, and then the 50:50 (acetonitrile/water) solution was added to bring the volume to the mark, so as to give a control solution.
Additionally, centrifuge tubes each containing about 1 mg of the test sample were taken, 1 mL of the corresponding medium solution was then added, and the tubes were shaken on a 37 °C water bath shaker for 24 h. After centrifugation for 3 times (centrifugation time: 10 min, rotation speed: 12000 rpm), 0.2 mL of the supernatants were taken, 0.8 mL of the diluent (acetonitrile/water = 50/50) was added to each tube, and the mixtures were vortexed and mixed well to give solubility samples.
The solubility samples described above and the control solution were sequentially analyzed by high performance liquid chromatography. The chromatographic conditions are as follows:
The actual concentration of the compound in each solubility sample was calculated according to an external standard method. Concentration (μg/mL) = (ASample × CControl × DSample)/(AControl)∗1000; [formula] Asample: the peak area of the target peak in the sample solution; Ccontrol: the concentration (mg/mL) of the control solution; Dsample: the dilution factor of the sample solution; Acontrol: the peak area of the target peak in the control solution.

Setting [2] is: KRAS WT-cRAF binding assay(nM), GPPNP-KRAS WT, IC50 values.
The mark [3] stands for this setting: KRAS G12V-cRAF binding assay(nM), GPPNP-KRAS G12V, IC50 values.
Setting [4] is: read-out: KRAS WT-cRAF binding assay, GPPNP-KRAS WT, IC50 values.
The mark [5] stands for this setting: read-out: KRAS G12V-cRAF binding assay, GPPNP-KRAS G12V, IC50 values.

≈ marks a conversion by molar mass, not a printed value. Read-outs that look alike come from different tables or passages of the source.

A word on the IC50: it is the midpoint of a concentration-inhibition curve. Usually solubility stands for the dissolved amount per volume that the medium holds. The Solubility is the dissolved amount per volume that the medium holds. Read a high Solubility as a readily soluble substance.

Sequence of KRAS WT-cRAF (P01116 1-188 isoform P01116-2): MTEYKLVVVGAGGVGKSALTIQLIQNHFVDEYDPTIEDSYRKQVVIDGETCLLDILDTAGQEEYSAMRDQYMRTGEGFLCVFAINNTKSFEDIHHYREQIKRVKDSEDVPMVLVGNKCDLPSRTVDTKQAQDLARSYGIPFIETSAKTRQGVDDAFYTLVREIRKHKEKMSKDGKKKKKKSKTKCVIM
Sequence of KRAS WT-cRAF (P62937 whole entry): as the sequence (P62937 whole entry) above
Method for KRAS G12V-cRAF: (§3) The plate was centrifuged at 1000 rpm for 1 min and then incubated in the thermostatic incubator at 20 °C for 30 min. […] The plate was centrifuged at 1000 rpm for 1 min and then incubated in the thermostatic incubator at 20 °C for 60 min. […] The working solution was added to the aforementioned assay plate at 5 µL/well. The plate was centrifuged at 1000 rpm for 1 min and then incubated in the thermostatic incubator at 20 °C for 60 min.
Method for KRAS WT-cRAF: as §3

As to `CCn1c(-c2cc(C#CCN3CCN(C(=O)CO)CC3)cnc2C(C)OC)c2c3cc(ccc31)-c1csc(n1)CC(NC(=O)C1C(C)C1C)C(=O)N1CCCC(N1)C(=O)OCC(C)(C)C2` (atropisomer, axis not shown; (Ra)) [Compound Z6, (1r,2R,3S)-N-((6^3S,4S,Z)-1^1-ethyl-(Ra)-1^2-(5-(3-(4-(2-hydroxyacetyl)piperazin-1-yl)prop-1-yn-1-yl)-2-((S)-1-methoxyethyl)pyridin-3-yl)-10,10-dimethyl-5,7-dioxo-6^1,6^2,6^3,6^4,6^5,6^6-hexahydro-1^1H-8-oxa-2(4,2)-thiazola-1(5,3)-indola-6(1,3)-pyridazinacycloundecaphane-4-yl)-2,3-dimethylcyclopropane-1-carboxamide], the IC50 stood at 0.31 nM with AsPC-1 cells (Homo sapiens, ASPC1, 120 h); 0.15 nM with AsPC-1 p-ERK (Homo sapiens, ASPC1); 19.2 nM at KRAS WT-cRAF (setting [2]); 10.7 nM at KRAS G12V-cRAF (setting [3]); 0.21 nM in the data set with H441 p-ERK (Homo sapiens); 0.28 nM in the data set on NCI-H441 cells (Homo sapiens, 120 h). Also, the concentration in solution in data set [1] (pH 7.4 medium) (solubility at 24 h) was 7.8 µg/mL (≈ 8.6 µM).
As for `CCn1c(-c2cc(C#CCN3CCN(C(=O)CO)CC3)cnc2[C@H](C)OC)c2c3cc(ccc31)-c1csc(n1)C[C@H](NC(=O)[C@H]1[C@@H]3COC[C@@H]31)C(=O)N1CCC[C@H](N1)C(=O)OCC(C)(C)C2` (atropisomer, axis not shown; (Ra)) [Compound Z34, (1R,5S,6r)-N-((6^3S,4S,Z)-1^1-ethyl-1^2-(5-(3-(4-(2-hydroxyacetyl)piperazin-1-yl)prop-1-yn-1-yl)-(Ra)-2-((S)-1-methoxyethyl)pyridin-3-yl)-10,10-dimethyl-5,7-dioxo-6^1,6^2,6^3,6^4,6^5,6^6-hexahydro-1^1H-8-oxa-2(4,2)-thiazola-1(5,3)-indola-6(1,3)-pyridazinacycloundecaphane-4-yl)-3-oxabicyclo[3.1.0]hexane-6-carboxamide], the IC50 with AsPC-1 cells turned out to be 0.77 nM; in the data set with AsPC-1 p-ERK, 0.28 nM; at KRAS WT-cRAF (setting [4]) it was 25.3 nM; on KRAS G12V-cRAF (setting [5]) it was 17.1 nM; in the data set on H441 p-ERK, 0.27 nM; in the data set with NCI-H441 cells it was 0.47 nM. The “Solubility at pH 7.4 (µg/mL)” value in data set [1] (pH 7.4 medium) was found to be 16.22 µg/mL.
As for `CCn1c(-c2cc(C#CC(CO)N3CCS(=O)(=O)CC3)cnc2C(C)OC)c2c3cc(ccc31)-c1csc(n1)CC(NC(=O)C1C3COCC31)C(=O)N1CCCC(N1)C(=O)OCC(C)(C)C2` (atropisomer, axis not shown; (Ra)) [Compound Z40, (1R,5S,6r)-N-((6^3S,4S,Z)-(Ra)-1^2-(5-(3-(1,1-dioxidothiomorpholino)-4-hydroxybut-1-yn-1-yl)-(Ra)-2-((S)-1-methoxyethyl)-pyridin-3-yl)-1^1-ethyl-10,10-dimethyl-5,7-dioxo-6^1,6^2,6^3,6^4,6^5,6^6-hexahydro-1^1H-8-oxa-2(4,2)-thiazola-1(5,3)-indola-6(1,3)-pyridazinacycloundecaphane-4-yl)-3-oxabicyclo[3.1.0]hexane-6-carboxamide], the half-inhibitory concentration (IC50) is 0.43 nM in the data set with AsPC-1 cells (Homo sapiens, ASPC1, 120 h); 0.38 nM in the data set with AsPC-1 p-ERK (Homo sapiens, ASPC1); 14.3 nM at KRAS WT-cRAF (setting [2]); 7.8 nM on KRAS G12V-cRAF (setting [3]); 0.45 nM in the data set with H441 p-ERK (Homo sapiens); 0.4 nM in the data set with NCI-H441 cells (Homo sapiens, 120 h). The solubility at 24 h in data set [1] (pH 7.4 medium) is 5.1 µg/mL (≈ 5.41 µM).
As to `COCCn1c(-c2cc(C#CCN3CCC(C#N)(CO)CC3)c[n+]([O-])c2C(C)OC)c2c3cc(ccc31)-c1csc(n1)CC(NC(=O)C1C(C)C1C)C(=O)N1CCCC(N1)C(=O)OCC(C)(C)C2` (atropisomer, axis not shown; (Ra)) [Compound Z42-1, 5-(3-(4-cyano-4-(hydroxymethyl)piperidin-1-yl)prop-1-yn-1-yl)-(Ra)-3-((6^3S,4S,Z)-4-((1r,2R,3S)-2,3-dimethylcyclopropane-1-carboxamido)-1^1-(2-methoxyethyl)-10,10-dimethyl-5,7-dioxo-6^1,6^2,6^3,6^4,6^5,6^6-hexahydro-1^1H-8-oxa-2(4,2)-thiazola-1(5,3)-indola-6(1,3)-pyridazinacycloundecaphane-1^2-yl)-2-((S)-1-methoxyethyl)pyridine 1-oxide], the IC50 came to 0.33 nM with AsPC-1 cells (Homo sapiens, ASPC1, 120 h); 1.32 nM with AsPC-1 p-ERK (Homo sapiens, ASPC1); 18.9 nM on KRAS WT-cRAF (setting [2]); 9.9 nM on KRAS G12V-cRAF (setting [3]); 1.8 nM in the data set with H441 p-ERK (Homo sapiens); 0.65 nM with NCI-H441 cells (Homo sapiens, 120 h). Also, in data set [1] (pH 7.4 medium), the concentration in solution (solubility at 24 h) came to 15.6 µg/mL (≈ 16.4 µM).
As to `CCn1c(-c2cc(C#CCN3CCN(C(=O)CO)CC3)cnc2C(C)OC)c2c3cc(ccc31)-c1coc(n1)CC(NC(=O)C1C3COCC31)C(=O)N1CCCC(N1)C(=O)OCC(C)(C)C2` (atropisomer, axis not shown; (Ra)) [Compound Z44, (1R,5S,6r)-N-((6^3S,4S,Z)-(Ra)-1^2-(5-(3-(4-(2-hydroxyacetyl)piperazin-1-yl)prop-1-yn-1-yl)-2-((S)-1-methoxyethyl)pyridin-3-yl)-1^1-ethyl-10,10-dimethyl-5,7-dioxo-6^1,6^2,6^3,6^4,6^5,6^6-hexahydro-1^1H-8-oxa-2(4,2)-oxazola-1(5,3)-indola-6(1,3)-pyridazinacycloundecaphane-4-yl)-3-oxabicyclo[3.1.0]hexane-6-carboxamide], the IC50 in the data set with AsPC-1 cells (Homo sapiens, ASPC1, 120 h) was found to be 1.21 nM; with AsPC-1 p-ERK (Homo sapiens, ASPC1) it was 1.73 nM; at KRAS WT-cRAF (setting [2]) it was 25.2 nM; on KRAS G12V-cRAF (setting [3]) it was 11.8 nM; in the data set on H441 p-ERK (Homo sapiens), 0.42 nM; in the data set with NCI-H441 cells (Homo sapiens, 120 h), 0.38 nM. The concentration in solution in data set [1] (pH 7.4 medium) (solubility at 24 h) was 55.8 µg/mL (≈ 61.6 µM).
Regarding `COCCn1c(-c2cc(C#CCN3CCN(C(=O)CO)CC3)c[n+]([O-])c2[C@H](C)OC)c2c3cc(ccc31)-c1csc(n1)C[C@H](NC(=O)[C@H]1[C@H](C)[C@@H]1C)C(=O)N1CCC[C@H](N1)C(=O)OCC(C)(C)C2` (atropisomer, axis not shown; (Ra)) [Compound Z54, (Ra)-3-((6^3S,4S,Z)-4-((1r,2R,3S)-2,3-dimethylcyclopropane-1-carboxamido)-1^1-(2-methoxyethyl)-10,10-dimethyl-5,7-dioxo-6^1,6^2,6^3,6^4,6^5,6^6-hexahydro-11H-8-oxa-2(4,2)-thiazola-1(5,3)-indola-6(1,3)-pyridazinacyclodecaphane-1^2-yl)-5-(3-(4-(2-hydroxyacetyl)piperazin-1-yl)prop-1-yn-1-yl)-2-((S)-1-methoxyethyl)pyridine 1-oxide], the half-inhibitory concentration (IC50) in the data set with AsPC-1 cells (Homo sapiens, ASPC1, 120 h) is 14 nM; at KRAS WT-cRAF (setting [4]) it was 74.8 nM; at KRAS G12V-cRAF (setting [5]) it was 12.1 nM; in the data set on NCI-H441 cells (Homo sapiens, 120 h) it was 4.7 nM. Besides, in data set [1] (ph 7.4 medium), the solubility at 24 h came to 36.2 µg/mL (≈ 38 µM).

The values above are taken from patent EP4775582A1, “MACROCYCLIC COMPOUND AND ANTIBODY-DRUG CONJUGATE THEREOF” (Genfleet Therapeutics (Shanghai) Inc., priority 2023, dated 2025).
